We go through ten compounds from ChEMBL document CHEMBL4304749, “Covalent Inhibitors of Protein-Protein Interactions Targeting Lysine, Tyrosine, or Histidine Residues” (J Med Chem, 2019).

Data set [1] can be described thus: Half-life in 50 mM phosphate buffer of pH 7.5 at 37 degreeC by 1H NMR method. The format is physicochemical. Particulars: for half-life: phosphate buffer; for t1/2: buffer.
Data set [2] is described as follows: Half-life of the compound at pH 7.2 by NMR spectroscopy. The format is physicochemical.
A short description of data set [3]: Aqueous stability of the compound in simulated gastric fluid at pH 1.5 by NMR spectroscopy.
Data set [4] in a line: Stability in mouse plasma at 200 uM by LC-MS method. The class given is ADME, cell-free.
Data set [5] can be described thus: Half-life in mouse plasma at 200 uM by LC-MS method. The format is ADME, cell-free.
A short description of data set [6]: Drug degradation in mouse plasma at 200 uM after 40 min by LC-MS method. The format is ADME, cell-free. Particulars: read-out: Drug degradation.
The nature of data set [7]: Aqueous stability of the compound pH 7.2 by NMR spectroscopy. Particulars: buffer. The format is physicochemical.
Data set [8] concerns the target T1, E3 ubiquitin-protein ligase XIAP (Homo sapiens, UniProt P98170).
Data set [9] addresses T1, E3 ubiquitin-protein ligase XIAP. The source holds these as a separate data set.
Data set [10] relates to SK-OV-3. The experiment in a line: Induction of apoptosis in human SKOV3 cells assessed caspase-3 activation after 48 hrs by IncuCyte S3 live-cell analysis. The class given is functional, cell-based. Particulars: SK-OV-3, 48 h.
Data set [11] has as its target T1, E3 ubiquitin-protein ligase XIAP. The experiment in a line: biochemical.
Data set [12] shares this target. The experiment in a line: biochemical. The source holds these as a separate data set.
The test system of data set [13] is SK-OV-3. The experiment in a line: Induction of apoptosis in human SKOV3 cells assessed caspase-3 activation after 24 hrs by IncuCyte S3 live-cell analysis. The format is functional, cell-based. Particulars: SK-OV-3, 24 h.

Square brackets hold non-standard residues; d marks the D form. Peptide text beside a SMILES is read from it. Tyr(SO2F) = N[C@@H](Cc1ccc(OS(=O)(=O)F)cc1)C(=O)O; NMeA = CN[C@@H](C)C(=O)O

T1 sequence (P98170 whole entry): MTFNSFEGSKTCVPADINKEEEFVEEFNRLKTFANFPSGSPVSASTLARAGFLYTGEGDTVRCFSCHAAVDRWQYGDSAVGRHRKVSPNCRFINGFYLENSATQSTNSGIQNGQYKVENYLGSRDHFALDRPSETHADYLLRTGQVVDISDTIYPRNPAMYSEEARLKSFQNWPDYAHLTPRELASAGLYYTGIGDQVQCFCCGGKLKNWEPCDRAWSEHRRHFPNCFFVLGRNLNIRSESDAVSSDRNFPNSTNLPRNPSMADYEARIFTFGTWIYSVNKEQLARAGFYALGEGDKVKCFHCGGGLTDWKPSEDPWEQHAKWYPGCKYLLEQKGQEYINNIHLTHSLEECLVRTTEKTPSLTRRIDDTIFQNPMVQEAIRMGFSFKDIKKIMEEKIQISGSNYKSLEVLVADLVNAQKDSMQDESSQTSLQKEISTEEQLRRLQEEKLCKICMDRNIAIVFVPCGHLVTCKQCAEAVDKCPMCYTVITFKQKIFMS

As to `CN[C@@H](C)C(=O)N[C@@H](CNC(=O)c1ccc(S(=O)(=O)F)cc1)C(=O)N1CCC[C@H]1C(=O)N[C@@H](Cc1ccccc1)C(N)=O`, the half-life in data set [1] and in [2] was 0.5 h in each case. Also, the figures for the Stability result in data set [3] and in [4] were “Stable” and “Unstable”, respectively.

In [1], `CN[C@@H](C)C(=O)N[C@@H](Cc1ccc(S(=O)(=O)O)cc1)C(=O)N1CCC[C@H]1C(=O)N[C@@H](Cc1ccccc1)C(N)=O` had a t1/2 of more than 5 h.

`CN[C@@H](C)C(=O)N[C@@H](Cc1ccc(OS(=O)(=O)F)cc1)C(=O)N1CCC[C@H]1C(=O)N[C@@H]1CCc2c(F)cccc21` registered a half-life at 200 µM in [5] of more than 2 h.

For `CN[C@@H](C)C(=O)N[C@@H](CNCc1ccc(S(=O)(=O)F)cc1)C(=O)N1CCC[C@H]1C(=O)N[C@@H]1CCc2c(F)cccc21`, in data set [6], the metabolised at 40 min, 200 µM is 100%. Further, the half-life at 200 µM in data set [5] was 0.25 h.

In [1], `CN[C@@H](C)C(=O)N[C@@H](CNCc1ccc(S(=O)(=O)F)cc1)C(=O)N1CCC[C@H]1C(=O)N[C@@H](Cc1ccccc1)C(N)=O` showed a half-life of 2.5 h. In addition, the Stability result in data set [7] and in [3] was “Stable” throughout.

Compound `CN[C@@H](C)C(=O)N[C@@H](Cc1ccc(OS(=O)(=O)F)cc1)C(=O)N1CCC[C@H]1C(=O)NC1Cc2ccccc2C1` had a half-life at 200 µM in [5] of more than 2 h.

In turn, `CC(C)[C@H](NC(=O)[C@H](C)N)C(=O)N1CCC[C@H]1C(=O)N[C@@H](Cc1ccccc1)C(=O)O` (H-AVPF-OH) returned a half-life in data set [1] of more than 5 h. The shift in melting temperature (ΔTm) in data set [8] worked out at 17 °C; in [9] it was 5.5 °C.

For `CN[C@@H](C)C(=O)N[C@@H](Cc1ccc(OS(=O)(=O)F)cc1)C(=O)N1CCC[C@H]1C(=O)N[C@@H](Cc1ccccc1)C(N)=O` (H-[NMeA][Tyr(SO2F)]PF-NH2), the t1/2 in [1] is more than 5 h. Further, the Stability entry in [7] and in [3] was “Stable” in each case.

With `CN[C@@H](C)C(=O)N[C@H](C(=O)N1CCC[C@H]1C(=O)Nc1snnc1-c1ccccc1)C1CCCCC1` [GDC-0152], the 50% effective concentration (EC50) in the data set on SK-OV-3 [10] came to 2.5 nM; in the data set with SK-OV-3 [13] it was 3 nM. Besides, the IC50 in [11] and in data set [12] was 21 nM throughout. Also, the figures for the ΔTm in data set [8] and in [9] were 19.5 °C and 15 °C, respectively. This compound also had a half-life at 200 µM in [5] of 1 h.

On to `CN[C@@H](C)C(=O)N[C@H](C(=O)N1CCC[C@H]1c1nc(C(=O)c2ccc(F)cc2)cs1)C1CCCCC1` [LCL-161], for which the concentration for a half-maximal effect (EC50) in the data set on SK-OV-3 [10] stood at 1 nM; with SK-OV-3 [13] it was 3 nM. In addition, the half-life at 200 µM in data set [5] was more than 2 h.
